# Laboratory results reported in ChEMBL document CHEMBL3751695, “Cationic lipid-conjugated hydrocortisone as selective antitumor agent” (Eur J Med Chem, 2016).
# pIC50: −log10 of the molar value. Activity calls are given as the source filed them. The rule behind the calls is not given here.
# Key:
# [1] = Cytotoxicity against mouse B16F10 cells after 72 hrs by MTT assay; format: functional, cell-based; conditions: B16-F10, 72 h
# B16-F10 [2] = assay: Antitumor activity in mouse B16F10 cells xenografted in C57BL/J mouse assessed as increase of apoptotic protein cytochrome C level in tumor lysates at 10 mg/kg, ip by western blot analysis; format: functional, organism-based; conditions: Neoplasm, Lysate
# [3] = Cytotoxicity against mouse B16F10 cells at 10 and 20 uM after 72 hrs by MTT assay; format: functional, B16-F10
# [4] = Antitumor activity in mouse B16F10 cells xenografted in C57BL/J mouse assessed as increase in ratio of Bax/Bcl2 in tumor lysates at 10 mg/kg, ip by western blot analysis (reference value: 0.4); format: functional, Neoplasm, B16-F10
# A549 [5] = assay: Induction of apoptosis in human A549 cells assessed as late apoptotic cells at 20 uM after 24 hrs by annexin-V-FITC/propidium iodide staining based flow cytometry (reference value: 7.40 %); format: functional
# B16-F10 [6] = assay: Induction of apoptosis in mouse B16F10 cells assessed as increased Bax expression at 10 uM after 36 hrs by western blot analysis; format: functional, cell-based
# [7] = Cell cycle arrest in mouse B16F10 cells assessed as accumulation at G2/M phase at 20 uM after 24 hrs by propidium iodide staining based flow cytometry (reference value: 15.2 %); format: functional; conditions: B16-F10
# RAW264.7 [8] = assay: Cytotoxicity against mouse RAW264.7 cells after 72 hrs by MTT assay; format: cell-based; conditions: RAW264.7, 72 h
# B16-F10 [9] = assay: Induction of apoptosis in mouse B16F10 cells assessed as increase in ratio of Bax/Bcl2 level at 20 uM after 36 hrs by western blot analysis (reference value: 0.2); format: functional
# MDA-MB-231 [10] = assay: Induction of apoptosis in human MDA-MB-231 cells assessed as viable cells at 20 uM after 24 hrs by annexin-V-FITC/propidium iodide staining based flow cytometry (reference value: 90.77 %); format: functional; conditions: MDA-MB-231, 24 h, read-out: Activity
# [11] = Cell cycle arrest in mouse B16F10 cells assessed as accumulation at G1 phase at 20 uM after 24 hrs by propidium iodide staining based flow cytometry (reference value: 38.8 %); format: functional; conditions: B16-F10
# B16-F10 [12] = assay: Induction of apoptosis in mouse B16F10 cells assessed as viable cells at 20 uM after 24 hrs by annexin-V-FITC/propidium iodide staining based flow cytometry (reference value: 93.66 %); format: functional; conditions: B16-F10, 24 h, read-out: Activity
# MDA-MB-231 [13] = assay: Induction of apoptosis in human MDA-MB-231 cells assessed as late apoptotic cells at 20 uM after 24 hrs by annexin-V-FITC/propidium iodide staining based flow cytometry (reference value: 3.25 %); format: functional
# A549 [14] = assay: Induction of apoptosis in human A549 cells assessed as early apoptotic cells at 20 uM after 24 hrs by annexin-V-FITC/propidium iodide staining based flow cytometry (reference value: 1.41 %); format: functional
# B16-F10 [15] = assay: Induction of apoptosis in mouse B16F10 cells assessed as increase in cleaved caspase 3 level at 10 uM after 36 hrs by western blot analysis; format: functional, cell-based
# [16] = Cell cycle arrest in mouse B16F10 cells assessed as accumulation at S phase at 20 uM after 24 hrs by propidium iodide staining based flow cytometry (reference value: 5.4 %); format: functional; conditions: B16-F10
# RAW264.7 [17] = assay: Induction of apoptosis in mouse RAW264.7 cells assessed as early apoptotic cells at 20 uM after 24 hrs by annexin-V-FITC/propidium iodide staining based flow cytometry (reference value: 3.44 %); format: cell-based; conditions: raw264.7, 24 h
# B16-F10 [18] = assay: Induction of apoptosis in mouse B16F10 cells assessed as increase in cleaved caspase 3 level at 20 uM after 36 hrs by western blot analysis; format: functional, cell-based
# B16-F10 [19] = assay: Antitumor activity in mouse B16F10 cells xenografted in C57BL/J mouse assessed as decrease in VEGFR2 expression in tumor at 10 mg/kg, ip by immunohistochemical analysis; format: functional, organism-based
# B16-F10 [20] = assay: Induction of apoptosis in mouse B16F10 cells assessed as late apoptotic cells at 20 uM after 24 hrs by annexin-V-FITC/propidium iodide staining based flow cytometry (reference value: 4.47 %); format: functional
compound,measurement,setting,value
CCCCCCCCCCCCCCCC[N+](C)(CCCCCCCCCCCCCCCC)CCNC(=O)[C@@]1(O)CC[C@H]2[C@@H]3CCC4=CC(=O)CC[C@]4(C)[C@H]3[C@@H](O)C[C@@]21C.[Cl-],pIC50,[1],5.21
same,Activity,B16-F10 [2],Active
same,Activity,[3],>90%
same,Ratio,[4],2.1
same,Activity,A549 [5],66.05%
same,Activity,B16-F10 [6],Active
same,Activity,[7],41.4%
same,pIC50,RAW264.7 [8],4.74
same,Ratio,B16-F10 [9],0.6
same,viability at 20 µM,MDA-MB-231 [10],50.7%
same,Activity,[11],33.8%
same,viability at 20 µM,B16-F10 [12],57.4%
same,Activity,MDA-MB-231 [13],40.23%
same,Activity,A549 [14],7.53%
same,Activity,B16-F10 [15],Active
same,Activity,[16],9.6%
same,Activity,RAW264.7 [17],1.63%
same,Activity,B16-F10 [18],Active
same,inhibition,B16-F10 [19],Active
same,Activity,B16-F10 [20],32.41%
